Data: US20200172927A1, “REP[…] […] FOR TREATMENT OF NEURODEGENERATION” (The Trustees of Columbia University in the City of New York, priority 2017, published 2020)

Tested on: HIF2a and GLUT1
Assay: Immunoblot of retinas from B6 mice orally fed VH298 for 3 days
Type: in vivo
Details: 6-week old B6 mice, oral, VH298 in oil 10, 20, or 50 mg/kg, retinas collected 4 hours after last feeding, vs oil only control
Method: 6-week old B6 mice were orally fed for 3 days with VH298 in oil (10, 20, or 50 mg/kg) or oil only for the control group. Each group contained 3 mice. 4 hours after the last feeding, mice retinas were collected and processed immediately for immunoblot. Protein levels of HIF2a, and Glut1 were shown. B-actin was used as loading control.
6-week old B6 mice were orally fed for 3 days with VH298 in oil (10, 20, or 50 mg/kg) or oil only for the control group. Each group contained 3 mice. 4 hours after the last feeding, mice retinas were collected and processed immediately for immunoblot.

## Cc1ncsc1-c1ccc(CNC(=O)[C@@H]2C[C@@H](O)CN2C(=O)[C@@H](NC(=O)C2(C#N)CC2)C(C)(C)C)cc1 [VH298, (2S,4R)-1-((S)-2-(1-cyanocyclopropanecarboxamido)-3,3-dimethylbutanoyl)-4-hydroxy-N-(4-(4-methylthiazol-5-yl)benzyl)pyrrolidine-2-carboxamide]
  Protein level of GLUT1 in retina (immunoblot): dose-dependent increase
  Protein level of HIF2a in retina (immunoblot): dose-dependent increase
